Results reported in patent US9115169B2, “Method of treating tumors” (Lytix Biopharma AS, priority 2000, dated 2015).
In brackets after ≈: the same amount, converted by molar mass. Several values for one entry are separate records, joined by “and”; a condition that tells them apart may be missing. Equal entries are not always repeated. Where two headings read alike, the source gives them in different places. *1 amine or outer side, *2 acyl side, *3 side chain or, on linkers, in order; H or OH if unused. Where a SMILES comes first, the peptide text is derived from it. Where no end group is shown, it is not given here. [ ]: non-standard residue; d: D form. The star is where a group is joined. Ethylenediamine = C(CN[*:2])N[*:1]; Cbz = O=C(OCc1ccccc1)*; OBn = c1ccc(CO*)cc1

Tests used:
[1] = test system: Escherichia coli ATCC 25922
[2] = test system: Staphylococcus aureus ATCC 25923
MRSA ATCC 33591 = details: ATCC 33591
MRSE ATCC 27626 = details: ATCC 27626
[3] = test system: Escherichia coli ATCC 25922; remark: listed apart in the source
[4] = test system: Staphylococcus aureus ATCC 25923; remark: listed apart in the source
[5] = Table 1, peptide amides, value outside brackets

Row | Molecule | MIC E. coli ([1]; ATCC 25922) | MIC S. aureus ([2]; ATCC 25923) | MBC E. coli ([3]; ATCC 25922) | MBC S. aureus ([4]; ATCC 25923) | other results
1 | C[C@H](N)C(=O)N[C@@H](CCCNC(=N)N)C(=O)OCc1ccc(-c2ccccc2)cc1 [AROBip] |  |  |  |  | Minimum inhibitory concentration E. coli ([1]; ATCC 25922): 300 µg/mL (≈ 729 µM); Minimum inhibitory concentration S. aureus ([2]; ATCC 25923): 100 µg/mL (≈ 243 µM); Minimum inhibitory concentration MRSA (MRSA ATCC 33591): 37.5 µg/mL (≈ 91.1 µM); Minimum inhibitory concentration MRSE (MRSE ATCC 27626): 25 µg/mL (≈ 60.8 µM)
2 | N=C(N)NCCC[C@H](NC(=O)[C@@H](N)Cc1ccc(-c2ccccc2)cc1)C(=O)OCc1ccc(-c2ccccc2)cc1 [BipROBip] |  |  |  |  | Minimum inhibitory concentration E. coli ([1]; ATCC 25922): 50 µg/mL (≈ 88.7 µM); Minimum inhibitory concentration S. aureus ([2]; ATCC 25923): 5.0 µg/mL (≈ 8.87 µM); Minimum inhibitory concentration MRSA (MRSA ATCC 33591): 5.0 µg/mL (≈ 8.87 µM); Minimum inhibitory concentration MRSE (MRSE ATCC 27626): 5.0 µg/mL (≈ 8.87 µM)
3 | N=C(N)NCCC[C@H](NC(=O)C1CCCCC1)C(=O)N[C@@H](Cc1c[nH]c2ccccc12)C(=O)OCc1ccccc1 [Chx RW OBz, Chx-Arg-Trp-OBzl] | 200 (>200) μg/ml | 75 (75) μg/ml | 200 (>200) μg/ml | 75 (75) μg/ml | 
4 | COC(=O)[C@H](CCCNC(=N)N)NC(=O)[C@H](Cc1c[nH]c2ccccc12)NC(=O)C1CCCCC1 [Chx WR OMe, Chx-Trp-Arg-OMe] | >200 (>200) μg/ml | >200 (>200) μg/ml | >200 (>200) μg/ml | >200 (>200) μg/ml | 
5 | N=C(N)NCCC[C@H](NC(=O)[C@@H](N)Cc1ccccc1)C(=O)OCc1ccc(-c2ccccc2)cc1 [FROBip] |  |  |  |  | Minimum inhibitory concentration E. coli ([1]; ATCC 25922): 100 µg/mL (≈ 205 µM); Minimum inhibitory concentration S. aureus ([2]; ATCC 25923): 12.5 µg/mL (≈ 25.6 µM); Minimum inhibitory concentration MRSA (MRSA ATCC 33591): 12.5 µg/mL (≈ 25.6 µM); Minimum inhibitory concentration MRSE (MRSE ATCC 27626): 5 µg/mL (≈ 10.3 µM)
6 | N=C(N)NCCC[C@H](NC(=O)Cc1c[nH]c2ccccc12)C(=O)N[C@@H](Cc1c[nH]c2ccccc12)C(=O)NCCNC(=O)OCc1ccccc1 [Ind RW DaeZ, Ind-Arg-Trp-Dae-Z] | >200 (>200) μg/ml | 75 (75) μg/ml | >200 (>200) μg/ml | 75 (75) μg/ml | 
7 | N=C(N)NCCC[C@H](NC(=O)Cc1c[nH]c2ccccc12)C(=O)N[C@@H](Cc1c[nH]c2ccccc12)C(=O)OCc1ccccc1 [Ind RW OBz, Ind-Arg-Trp-OBzl] | >200 (>200) μg/ml | 20 (20) μg/ml | >200 (>200) μg/ml | 20 (20) μg/ml | 
8 | COC(=O)[C@H](CCCNC(=N)N)NC(=O)[C@H](Cc1c[nH]c2ccccc12)NC(=O)Cc1c[nH]c2ccccc12 [Ind WR OMe, Ind-Trp-Arg-OMe] | >200 (>200) μg/ml | >200 (>200) μg/ml | >200 (>200) μg/ml | >200 (>200) μg/ml | 
9 | NCCCC[C@H](N)C(=O)N[C@@H](Cc1ccccc1)C(=O)OCc1ccccc1 [KF-Obzl] | >300 µg/mL | 300 µg/mL (≈ 782 µM) |  |  | MIC MRSA (MRSA ATCC 33591): 300 µg/mL (≈ 782 µM); MIC MRSE (MRSE ATCC 27626): 150 µg/mL (≈ 391 µM)
10 | N=C(N)NCCC[C@H](NC(=O)[C@H](CCCNC(=N)N)NC(=O)[C@@H](N)CCCNC(=N)N)C(=O)N[C@@H](Cc1c[nH]c2ccccc12)C(=O)N[C@@H](Cc1c[nH]c2ccccc12)C(=O)N[C@@H](Cc1c[nH]c2ccccc12)C(N)=O [RRRWWW] (H-RRRWWW-NH2) |  |  | 20 µg/mL (≈ 19.2 µM) |  | 
11 | N=C(N)NCCC[C@H](N)C(=O)N[C@@H](Cc1c[nH]c2ccccc12)C(=O)NCCNC(=O)OCc1ccccc1 [RW DaeZ, H-Arg-Trp-Dae-Z] (H-Arg-Trp-{Ethylenediamine-Cbz}) | >200 (>200) μg/ml | 50 µg/mL (≈ 93.2 µM) | >200 (>200) μg/ml | 75 µg/mL (≈ 140 µM) | 
12 | N=C(N)NCCC[C@H](NC(=O)[C@H](Cc1c[nH]c2ccccc12)NC(=O)[C@@H](N)CCCNC(=N)N)C(=O)N[C@@H](Cc1c[nH]c2ccccc12)C(=O)OCc1ccccc1 [RWRW-OBzl] (H-RWRW-OBn) | 100 µg/mL (≈ 126 µM) |  |  |  | MIC MRSE (MRSE ATCC 27626): 2.5 µg/mL (≈ 3.15 µM)
13 | N=C(N)NCCC[C@H](NC(=O)[C@H](Cc1c[nH]c2ccccc12)NC(=O)[C@H](CCCNC(=N)N)NC(=O)[C@H](Cc1c[nH]c2ccccc12)NC(=O)[C@@H](N)CCCNC(=N)N)C(=O)N[C@@H](Cc1c[nH]c2ccccc12)C(N)=O [RWRWRW] (H-RWRWRW-NH2) |  |  | 20 µg/mL (≈ 19.2 µM) | 10 µg/mL (≈ 9.58 µM) | 
14 | N=C(N)NCCC[C@H](NC(=O)[C@H](Cc1c[nH]c2ccccc12)NC(=O)[C@H](CCCNC(=N)N)NC(=O)[C@@H](N)Cc1c[nH]c2ccccc12)C(=O)N[C@@H](Cc1c[nH]c2ccccc12)C(N)=O [WRWRW] (H-WRWRW-NH2) |  |  | 50 µg/mL (≈ 56.3 µM) | 20 (20) μg/ml | 
15 | N=C(N)NCCC[C@H](NC(=O)[C@H](Cc1c[nH]c2ccccc12)NC(=O)[C@H](CCCNC(=N)N)NC(=O)[C@@H](N)Cc1c[nH]c2ccccc12)C(N)=O [WRWR] (H-WRWR-NH2; N-terminus assumed) |  |  |  |  | MIC E. coli [1, 5]: >100 µg/mL; MIC S. aureus [2, 5]: 100 µg/mL (≈ 142 µM); MBC E. coli ([3]; Table 1, peptide amides): >100 µg/mL; MBC S. aureus [4, 5]: >100 µg/mL
16 | N=C(N)NCCC[C@@H](NC(=O)[C@H](N)Cc1c[nH]c2ccccc12)C(=O)N[C@H](Cc1c[nH]c2ccccc12)C(=O)OCc1ccccc1 [wrw-OBzl] (H-[dW]-[dR]-[dW]-OBn) |  |  |  |  | MIC MRSE (MRSE ATCC 27626): 5 µg/mL (≈ 7.85 µM)
17 | AWRWRA-NH2 Pmc+: hexapeptide amide having the Pmc group (also: Pmc group, position not given here) |  |  |  |  | MIC E. coli ([1]; Table 8, first column): 20 µg/mL; MIC E. coli ([1]; Table 8, second column): 18.0 μM/ml; MIC S. aureus ([2]; Table 8, first column): 2.5 µg/mL; MIC S. aureus ([2]; Table 8, second column): 2.3 μM/ml
18 | RRAAWW-NH2 Pmc+: hexapeptide amide having the Pmc group; label printed twice, second probably RRAAWB (also: Pmc group, position not given here) |  |  |  |  | MIC E. coli ([1]; Table 8, first column): 20 µg/mL; MIC E. coli ([1]; Table 8, second column): 17.4 μM/ml and 18.0 μM/ml; MIC S. aureus ([2]; Table 8, first column): 2.5 µg/mL; MIC S. aureus ([2]; Table 8, second column): 2.2 μM/ml and 2.3 μM/ml
19 | WRAAWR-NH2 Pmc+: hexapeptide amide having the Pmc group (also: Pmc group, position not given here) |  |  |  |  | MIC E. coli ([1]; Table 8, first column): 50 µg/mL; MIC E. coli ([1]; Table 8, second column): 45.0 μM/ml; MIC S. aureus ([2]; Table 8, first column): 2.5 µg/mL; MIC S. aureus ([2]; Table 8, second column): 2.3 μM/ml
20 | WWAARR-NH2 Pmc+: hexapeptide amide having the Pmc group (also: Pmc group, position not given here) |  |  |  |  | MIC E. coli ([1]; Table 8, first column): 50 µg/mL; MIC E. coli ([1]; Table 8, second column): 45.0 μM/ml; MIC S. aureus ([2]; Table 8, first column): 5 µg/mL; MIC S. aureus ([2]; Table 8, second column): 4.5 μM/ml

The next lines start with results.

Row | MIC E. coli ([1]; ATCC 25922) | MIC S. aureus ([2]; ATCC 25923) | Molecule | MBC E. coli ([3]; ATCC 25922) | MBC S. aureus ([4]; ATCC 25923) | other results
21 |  | 20 µg/mL (≈ 23.3 µM) | N=C(N)NCCC[C@H](NC(=O)[C@H](Cc1c[nH]c2ccccc12)NC(=O)[C@H](CCCNC(=N)N)NC(=O)[C@H](Cc1c[nH]c2ccccc12)NC(=O)[C@@H](N)CCCNC(=N)N)C(N)=O [RWRWR] (H-RWRWR-NH2) | 100 µg/mL (≈ 117 µM) | 20 µg/mL (≈ 23.3 µM) | 
22 | >100 µg/mL | >100 µg/mL | N=C(N)NCCC[C@H](NC(=O)[C@H](Cc1c[nH]c2ccccc12)NC(=O)[C@@H](N)CCCNC(=N)N)C(N)=O [RWR] (H-Arg-Trp-Arg-NH2; N-terminus assumed) | >100 µg/mL | >100 µg/mL | 
23 | >100 µg/mL | 10 µg/mL (≈ 14.2 µM) | N=C(N)NCCC[C@H](NC(=O)[C@H](Cc1c[nH]c2ccccc12)NC(=O)[C@H](Cc1c[nH]c2ccccc12)NC(=O)[C@@H](N)CCCNC(=N)N)C(N)=O [RWWR] (H-RWWR-NH2; N-terminus assumed) | >100 µg/mL | >100 µg/mL | 
24 | 10 µg/mL (≈ 9.58 µM) | 7.5 µg/mL (≈ 7.18 µM) | N=C(N)NCCC[C@H](NC(=O)[C@H](CCCNC(=N)N)NC(=O)[C@H](Cc1c[nH]c2ccccc12)NC(=O)[C@H](Cc1c[nH]c2ccccc12)NC(=O)[C@H](Cc1c[nH]c2ccccc12)NC(=O)[C@@H](N)CCCNC(=N)N)C(N)=O [RWWWRR] (H-RWWWRR-NH2) | 15 µg/mL (≈ 14.4 µM) | 10 µg/mL (≈ 9.58 µM) | 
25 |  | 5 µg/mL (≈ 6.31 µM) | N=C(N)NCCC[C@H](N)C(=O)N[C@@H](Cc1c[nH]c2ccccc12)C(=O)N[C@H](CCCNC(=N)N)C(=O)N[C@H](Cc1c[nH]c2ccccc12)C(=O)OCc1ccccc1 [RWrw-OBzl] (H-RW[dR][dW]-OBn) |  |  | MIC MRSE (MRSE ATCC 27626): 2.5 µg/mL (≈ 3.15 µM)
26 | >100 µg/mL | 75 to 100 µg/mL | N=C(N)NCCC[C@H](NC(=O)[C@H](CCCNC(=N)N)NC(=O)[C@@H](N)Cc1c[nH]c2ccccc12)C(=O)N[C@@H](Cc1c[nH]c2ccccc12)C(N)=O [WRRW] (H-WRRW-NH2; N-terminus assumed) | >100 µg/mL | >100 µg/mL | 
27 | >100 µg/mL | 75 µg/mL (≈ 137 µM) | N=C(N)NCCC[C@H](NC(=O)[C@@H](N)Cc1c[nH]c2ccccc12)C(=O)N[C@@H](Cc1c[nH]c2ccccc12)C(N)=O [WRW] (H-Trp-Arg-Trp-NH2; N-terminus assumed) | >100 µg/mL | 100 µg/mL (≈ 183 µM) | 
28 | 20 (20) μg/ml |  | N=C(N)NCCC[C@H](NC(=O)[C@H](CCCNC(=N)N)NC(=O)[C@H](CCCNC(=N)N)NC(=O)[C@H](Cc1c[nH]c2ccccc12)NC(=O)[C@@H](N)Cc1c[nH]c2ccccc12)C(=O)N[C@@H](Cc1c[nH]c2ccccc12)C(N)=O [WWRRRW] (H-WWRRRW-NH2) | 20 µg/mL (≈ 19.2 µM) |  | 
29 | >200 µg/mL |  | N=C(N)NCCC[C@@H](N)C(=O)N[C@H](Cc1c[nH]c2ccccc12)C(=O)OCc1ccccc1 [rw-OBzl] (H-[dR]-[dW]-OBn) |  |  | MIC MRSE (MRSE ATCC 27626): 20 µg/mL (≈ 44.4 µM)
30 |  | 20 µg/mL (≈ 31.4 µM) | N=C(N)NCCC[C@H](NC(=O)[C@H](N)Cc1c[nH]c2ccccc12)C(=O)N[C@@H](Cc1c[nH]c2ccccc12)C(=O)OCc1ccccc1 [wRW-OBzl] (H-[dW]-Arg-Trp-OBn) |  |  | MIC MRSE (MRSE ATCC 27626): 10 µg/mL (≈ 15.7 µM)
